Assays:
KPL-4 = experiment: Cytotoxic effect, MTT assay, KPL-4 cells; format: cell-based; details: Homo sapiens, KPL4; Table 2, metabolites
Protocol: (§1) After 48 h, the medium was replaced. […] The suspension cells were counted and sown into a 96-well culture plate with white bottom (from Costar #3610) (#3610) (MOLM-13: 2000 cells/well; NB4: 7000 cells/well; MV-4-11: 5000 cells/well in a total volume of 100 μl). […] After 96 h, the cell proliferation was detected using the MTT assay (ATCC, Manassas, Va., USA, catalogue No. 30-1010K). To this end, the MTT reagent was incubated with the cells for 4 h, followed by lysis of the cells overnight by addition of the detergent. The dye formed was detected at 570 nm (Infinite M1000 pro, Tecan). The measured data were used to calculate the IC50 of the growth inhibition using the DRC (dose response curve). The proliferation of cells which were not treated with test substance but were otherwise identically treated was defined as the 100% figure.

MOLM-13 = experiment: Cytotoxic effect, MTT assay, MOLM-13 cells; format: cell-based; details: Homo sapiens, Table 2, metabolites
Protocol: as §1, with “μl). After 6 hours of incubation at 37° C. and 5% carbon dioxide, the medium was changed and the antibody-drug conjugates or metabolites were added by pipette in 10 μl of culture medium in concentrations of 10^−5M to 10^−13M to the cells (triplicates) in 90 μl.” for “μl).”

NCI-H292 = experiment: Cytotoxic effect, MTT assay, NCI-H292 cells; format: cell-based; details: Homo sapiens, Table 2, metabolites
SK-HEP-1 = experiment: Cytotoxic effect, MTT assay, SK-HEP-1 cells; format: cell-based; details: Homo sapiens, SK-HEP1; Table 2, metabolites
legumain = biological target: T1, legumain (Homo sapiens, UniProt Q99538); experiment: Legumain assay (enzymatic cleavage); format: biochemical; details: recombinant human legumain, rhLegumain 1 ng/μl, substrate 3 μM, pH 5.0, read-out: half-life of legumain-mediated cleavage to the target compound (converted)
T1 construct: purchased R&D Systems 2199-CY
T1 sequence (Q99538 18-323 limits assumed): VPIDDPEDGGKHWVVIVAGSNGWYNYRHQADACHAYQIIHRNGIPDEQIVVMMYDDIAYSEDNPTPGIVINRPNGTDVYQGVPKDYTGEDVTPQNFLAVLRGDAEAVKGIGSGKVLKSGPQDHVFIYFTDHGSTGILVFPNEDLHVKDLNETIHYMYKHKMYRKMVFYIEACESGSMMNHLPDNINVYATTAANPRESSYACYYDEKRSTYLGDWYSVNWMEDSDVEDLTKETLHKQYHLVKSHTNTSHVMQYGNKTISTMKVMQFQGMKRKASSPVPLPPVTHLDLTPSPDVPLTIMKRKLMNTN
Protocol: The legumain assay was conducted with recombinant human enzyme. The rhlegumain enzyme solution (catalogue #2199-CY, R&D Systems) was diluted in 50 mM Na acetate buffer/100 mM NaCl, pH 4.0 to the desired concentration and preincubated at 37° C. for 2 h. rhLegumain was then adjusted to a final concentration of 1 ng/μl in 50 mM MES buffer, 250 mM NaCl, pH 5.0. For every legumain-cleavable prodrug to be examined, a mixture was made up in a micro reaction vessel (0.5 ml, from Eppendorf). For this purpose, the substrate solution was adjusted to the desired concentration (double concentration) with 50 mM MES buffer, 250 mM NaCl, pH 5.0. For the kinetic measurement of the enzymatic reaction, 250 μl of the legumain solution were first initially charged and the enzyme reaction was started by adding 250 μl of the substrate solution (final concentration: single concentration; 3 μM). At various points in time, 50 μl samples were taken. Immediately, 100 μl of ice-cold methanol were added to this sample in order to stop the enzymatic reaction, and the sample was then frozen at −20° C. The times selected for sampling were after 0.5 h, 1 h, 3 h and 24 h. The samples were then analysed by means of RP-HPLC analysis and by LC-MS analysis. The determination of the toxophore released enabled the determination of the half-life t1/2 of the enzymatic reaction. […]

Caco-2 cells = experiment: Caco-2 flux assay for cell permeability; format: in vitro ADME; details: Caco-2, 2 h incubation
Protocol: The cell permeability of a substance can be investigated by means of in vitro testing in a flux assay using Caco-2 cells [M. D. Troutman and D. R. Thakker, Pharm. […] For this purpose, the cells were cultured for 15-16 days on 24-well filter plates. For the determination of permeation, the respective test substance was applied in a HEPES buffer to the cells either apically (A) or basally (B) and incubated for 2 hours. After 0 hours and after 2 hours, samples were taken from the cis and trans compartments. The samples were separated by HPLC (Agilent 1200, Böblingen, Germany) using reverse phase columns. The HPLC system was coupled via a Turbo Ion Spray Interface to a Triple Quadropole mass spectrometer API 4000 (AB SCIEX Deutschland GmbH, Darmstadt, Germany).

## CC(C)(C)[C@H](c1cc(-c2cc(F)ccc2F)cn1Cc1ccccc1)N(CCCN)C(=O)CO [Reference Example R3M, N-(3-Aminopropyl)-N-{(1R)-1-[1-benzyl-4-(2,5-difluorophenyl)-1H-pyrrol-2-yl]-2,2-dimethylpropyl}-2-hydroxyacetamide]
KPL-4
  IC50: 0.257 nM
MOLM-13
  IC50: 0.0669 nM
NCI-H292
  IC50: 0.27 nM
SK-HEP-1
  IC50: 7.62 nM

## CNC(=O)[C@H](CCN(C(=O)CO)[C@@H](c1cc(-c2cc(F)ccc2F)cn1Cc1ccccc1)C(C)(C)C)NC(=O)[C@H](CC(N)=O)NC(=O)[C@H](C)NC(=O)[C@H](C)NC(=O)Cc1ccncc1 [Model compound A, N-(Pyridin-4-ylacetyl)-L-alanyl-L-alanyl-N^1-[(2S)-4-[{(1R)-1-[1-benzyl-4-(2,5-difluorophenyl)-1H-pyrrol-2-yl]-2,2-dimethylpropyl}(glycoloyl)amino]-1-(methylamino)-1-oxobutan-2-yl]-L-aspartamide]
legumain
  half-life at 3 μM: 24 min

## CC(C)(C)[C@H](c1cc(-c2cc(F)ccc2F)cn1Cc1ccccc1)N(CC[C@H](N)C(=O)NCCC(=O)N[C@H](CCC(=O)O)C(=O)O)C(=O)CO [Example M1, N-{(2S)-2-Amino-4-[{(1R)-1-[1-benzyl-4-(2,5-difluorophenyl)-1H-pyrrol-2-yl]-2,2-dimethylpropyl}(glycoloyl)amino]butanoyl}-beta-alanyl-D-glutamic acid]
Caco-2 cells
  Papp (B-A): 0.27 ×10⁻⁶ cm/s
NCI-H292
  IC50: 174 nM
SK-HEP-1
  IC50: 19.6 nM
